Data as given in ChEMBL document CHEMBL1147193, “New 5-substituted thiazolo[3,2-b][1,2,4]triazol-6-ones: synthesis and anticancer evaluation” (2007).

How the values were obtained:
Assay type in all cases: functional
[1] = system: HT-29; assay: Growth inhibition of human HT29 cells after 48 hrs by SRB protein assay; details: HT-29, 48 h; for TGI: read-out: Log TGI (converted)
[2] = system: SR; assay: Growth inhibition of human SR cells after 48 hrs by SRB protein assay; details: for TGI: read-out: Log TGI (converted)
[3] = system: DU-145; assay: Growth inhibition of human DU145 cells after 48 hrs by SRB protein assay; details: DU-145, 48 h; for TGI: read-out: Log TGI (converted)
[4] = system: SF-539; assay: Growth inhibition of human SF539 cells after 48 hrs by SRB protein assay; details: SF-539, 48 h; for TGI: read-out: Log TGI (converted)
[5] = system: COLO 205; assay: Growth inhibition of human COLO205 cells after 48 hrs by SRB protein assay; details: COLO 205, 48 h; for TGI: read-out: Log TGI (converted)
[6] = system: SF-268; assay: Growth inhibition of human SF268 cells after 48 hrs by SRB protein assay; details: SF-268, 48 h; for TGI: read-out: Log TGI (converted)
[7] = system: MDA-MB-435; assay: Growth inhibition of human MDA-MB-435 cells after 48 hrs by SRB protein assay; details: MDA-MB-435, 48 h; for TGI: read-out: Log TGI (converted)
[8] = Growth inhibition of human MDA-MB-231/ATCC cells after 48 hrs by SRB protein assay; details: MDA-MB-231, 48 h; for TGI: read-out: Log TGI (converted)
[9] = system: CAKI-1; assay: Growth inhibition of human CAKI1 cells after 48 hrs by SRB protein assay; details: CAKI-1, 48 h; for TGI: read-out: Log TGI (converted)
[10] = system: HL-60; assay: Growth inhibition of human HL60 cells after 48 hrs by SRB protein assay; details: HL-60, 48 h; for TGI: read-out: Log TGI (converted)
[11] = system: NCI-H322M; assay: Growth inhibition of human NCI-H322M cells after 48 hrs by SRB protein assay; details: for TGI: read-out: Log TGI (converted)
[12] = system: OVCAR-3; assay: Growth inhibition of human OVCAR-3 cells after 48 hrs by SRB protein assay; details: OVCAR-3, 48 h; for TGI: read-out: Log TGI (converted)
[13] = system: BT-549; assay: Growth inhibition of human BT549 cells after 48 hrs by SRB protein assay; details: BT-549, 48 h; for TGI: read-out: Log TGI (converted)
[14] = system: K562; assay: Growth inhibition of human K562 cells after 48 hrs by SRB protein assay; details: K562, 48 h; for TGI: read-out: Log TGI (converted)
[15] = system: T47D; assay: Growth inhibition of human T47D cells after 48 hrs by SRB protein assay; details: for TGI: read-out: Log TGI (converted)
[16] = system: KM12; assay: Growth inhibition of human KM12 cells after 48 hrs by SRB protein assay; details: KM12, 48 h; for TGI: read-out: Log TGI (converted)
[17] = system: NCI-H23; assay: Growth inhibition of human NCI-H23 cells after 48 hrs by SRB protein assay; details: NCI-H23, 48 h; for TGI: read-out: Log TGI (converted)
[18] = system: EKVX; assay: Growth inhibition of human EKVX cells after 48 hrs by SRB protein assay; details: for TGI: read-out: Log TGI (converted)
[19] = system: A498; assay: Growth inhibition of human A498 cells after 48 hrs by SRB protein assay; details: A498, 48 h; for TGI: read-out: Log TGI (converted)
[20] = system: U-251; assay: Growth inhibition of human U251 cells after 48 hrs by SRB protein assay; details: U-251, 48 h; for TGI: read-out: Log TGI (converted)
[21] = system: MCF7; assay: Anticancer activity against human MCF7 cells assessed as growth of cells at 100 uM relative to untreated cells
[22] = system: SNB-75; assay: Growth inhibition of human SNB75 cells after 48 hrs by SRB protein assay; details: SNB-75, 48 h
[23] = system: SNB-19; assay: Growth inhibition of human SNB19 cells after 48 hrs by SRB protein assay; details: SNB-19, 48 h

## O=C(CC1Sc2ncnn2C1=O)Nc1ccc(Br)cc1 (stereo not drawn)
[1]
  GI50: 28.2 µM
  TGI: > 100 µM
[2]
  GI50: 18.2 µM
  TGI: > 100 µM
[3]
  GI50: 38.9 µM
  TGI: > 100 µM
[4]
  GI50: 20.9 µM
  TGI: 46.8 µM
[5]
  GI50: 17.8 µM
  TGI: 37.2 µM
[6]
  GI50: > 100 µM
  TGI: > 100 µM
[7]
  GI50: 31.6 µM
  TGI: > 100 µM
[8]
  GI50: 17 µM
  TGI: 36.3 µM
[9]
  GI50: 20.4 µM
  TGI: 43.7 µM
[10]
  GI50: 19.5 µM
  TGI: > 100 µM
[11]
  GI50: > 100 µM
  TGI: > 100 µM
[12]
  GI50: 20 µM
  TGI: 37.2 µM
[13]
  GI50: > 100 µM
  TGI: > 100 µM
[14]
  GI50: 26.3 µM
  TGI: 79.4 µM
[15]
  GI50: 18.2 µM
  TGI: 45.7 µM
[16]
  GI50: > 100 µM
  TGI: > 100 µM
[17]
  GI50: 20.9 µM
  TGI: 43.7 µM
[18]
  GI50: 31.6 µM
  TGI: > 100 µM
[19]
  GI50: 12.3 µM
  TGI: 57.5 µM
[20]
  GI50: 16.6 µM
  TGI: 31.6 µM
[21]
  Activity: 0%

## O=c1/c(=C/c2ccc(F)cc2)sc2ncnn12
[1]
  GI50: 45.7 µM
  TGI: > 100 µM
[2]
  GI50: 15.5 µM
  TGI: > 100 µM
[3]
  GI50: 39.8 µM
  TGI: > 100 µM
[4]
  GI50: 30.2 µM
  TGI: 93.3 µM
[5]
  GI50: 61.7 µM
  TGI: > 100 µM
[6]
  GI50: 33.9 µM
  TGI: > 100 µM
[7]
  GI50: 37.2 µM
  TGI: > 100 µM
[8]
  GI50: > 100 µM
  TGI: > 100 µM
[9]
  GI50: 69.2 µM
  TGI: > 100 µM
[10]
  GI50: 6.46 µM
  TGI: > 100 µM
[11]
  GI50: > 100 µM
  TGI: > 100 µM
[22]
  GI50: 58.9 µM
[22]; read-out: Log TGI (converted)
  TGI: > 100 µM
[12]
  GI50: 37.2 µM
  TGI: > 100 µM
[13]
  GI50: 42.7 µM
  TGI: 100 µM
[14]
  GI50: 38.9 µM
  TGI: > 100 µM
[15]
  GI50: 91.2 µM
  TGI: > 100 µM
[23]
  GI50: 63.1 µM
[23]; read-out: Log TGI (converted)
  TGI: > 100 µM
[16]
  GI50: 35.5 µM
  TGI: > 100 µM
[18]
  GI50: 83.2 µM
  TGI: > 100 µM
[19]
  GI50: 61.7 µM
  TGI: > 100 µM
[20]
  GI50: 60.3 µM
  TGI: > 100 µM
[21]
  Activity: 77%

## COc1ccc(NC(=O)CC2Sc3ncnn3C2=O)cc1 (stereo not drawn)
[1]
  GI50: 47.9 µM
  TGI: > 100 µM
[3]
  GI50: 57.5 µM
  TGI: > 100 µM
[4]
  GI50: 26.9 µM
  TGI: 55 µM
[5]
  GI50: 30.2 µM
  TGI: 79.4 µM
[6]
  GI50: > 100 µM
  TGI: > 100 µM
[7]
  GI50: 26.3 µM
  TGI: 70.8 µM
[8]
  GI50: 21.4 µM
  TGI: 38.9 µM
[9]
  GI50: 18.6 µM
  TGI: 34.7 µM
[10]
  GI50: 27.5 µM
  TGI: > 100 µM
[11]
  GI50: 97.7 µM
  TGI: > 100 µM
[12]
  GI50: 18.6 µM
  TGI: 38 µM
[13]
  GI50: > 100 µM
  TGI: > 100 µM
[14]
  GI50: 31.6 µM
  TGI: > 100 µM
[15]
  GI50: 37.2 µM
  TGI: > 100 µM
[16]
  GI50: > 100 µM
  TGI: > 100 µM
[17]
  GI50: 20 µM
  TGI: 37.2 µM
[18]
  GI50: 35.5 µM
  TGI: > 100 µM
[19]
  GI50: 21.4 µM
  TGI: 57.5 µM
[20]
  GI50: 22.4 µM
  TGI: 44.7 µM
[21]
  Activity: 0%
